Reference: ChEMBL document CHEMBL4831492, “Design and synthesis of 2-(2-isonicotinoylhydrazineylidene)propanamides as InhA inhibitors with high antitubercular activity” (Eur J Med Chem, 2021)
Converted amounts (≈) assume the structure as drawn. The source made the active and inactive calls. The calls are words filed in the database; no cut-off is given here.

What was measured:
[1] = test system: Mycobacterium tuberculosis; experiment: Antimycobacterial activity against drug susceptible Mycobacterium tuberculosis H37Rv assessed as minimal inhibitory concentration required for complete inhibition of mycobacterial growth incubated for 14 days; assay type: functional; settings: 336 h, time 14 day
[2] = test system: Mycobacterium tuberculosis; experiment: Antimycobacterial activity against drug susceptible Mycobacterium tuberculosis H37Rv assessed as minimal inhibitory concentration required for complete inhibition of mycobacterial growth incubated for 21 days; assay type: functional; settings: 504 h, time 21 day
Mycobacterium avium [3] = experiment: Antimycobacterial activity against drug resistant Mycobacterium avium 330/88 assessed as minimal inhibitory concentration required for complete inhibition of mycobacterial growth incubated for 14 days; assay type: functional; settings: 330/88, 336 h, time 14 day
Mycobacterium avium [4] = experiment: Antimycobacterial activity against drug resistant Mycobacterium avium 330/88 assessed as minimal inhibitory concentration required for complete inhibition of mycobacterial growth incubated for 21 days; assay type: functional; settings: 330/88, 504 h, time 21 day
Mycobacterium kansasii [5] = experiment: Antimycobacterial activity against drug resistant Mycobacterium kansasii 6509/96 assessed as minimal inhibitory concentration required for complete inhibition of mycobacterial growth incubated for 7 days; assay type: functional; settings: 6509/96, 168 h, time 7 day
Mycobacterium kansasii [6] = experiment: Antimycobacterial activity against drug resistant Mycobacterium kansasii 6509/96 assessed as minimal inhibitory concentration required for complete inhibition of mycobacterial growth incubated for 14 days; assay type: functional; settings: 6509/96, 336 h, time 14 day
Mycobacterium kansasii [7] = experiment: Antimycobacterial activity against drug resistant Mycobacterium kansasii 6509/96 assessed as minimal inhibitory concentration required for complete inhibition of mycobacterial growth incubated for 21 days; assay type: functional; settings: 6509/96, 504 h, time 21 day
Mycobacterium kansasii [8] = experiment: Antimycobacterial activity against drug resistant Mycobacterium kansasii 235/80 assessed as minimal inhibitory concentration required for complete inhibition of mycobacterial growth incubated for 7 days; assay type: functional; settings: 235/80, 168 h, time 7 day
Mycobacterium kansasii [9] = experiment: Antimycobacterial activity against drug resistant Mycobacterium kansasii 235/80 assessed as minimal inhibitory concentration required for complete inhibition of mycobacterial growth incubated for 14 days; assay type: functional; settings: 235/80, 336 h, time 14 day
Mycobacterium kansasii [10] = experiment: Antimycobacterial activity against drug resistant Mycobacterium kansasii 235/80 assessed as minimal inhibitory concentration required for complete inhibition of mycobacterial growth incubated for 21 days; assay type: functional; settings: 235/80, 504 h, time 21 day
HepG2 [11] = experiment: Cytotoxicity against human HepG2 cells assessed as reduction in cell viability incubated overnight followed by compound washout by MTT assay; assay type: cell-based
HepG2 [12] = experiment: Cytostatic activity in human HepG2 cells assessed as reduction in cell viability incubated overnight followed by compound washout and further incubated for 72 hrs in medium containing serum by MTT assay; assay type: functional, cell-based; settings: HepG2, 72 h
[13] = Selectivity index, ratio of CC50 for cytotoxicity against human HepG2 cells to MIC for antimycobacterial activity against drug susceptible Mycobacterium tuberculosis H37Rv; assay type: toxicity, cell-based; settings: read-out: Selectivity Index
[14] = Selectivity index, ratio of CC50 for cytotoxicity against human HepG2 cells to MIC for antimycobacterial activity against drug susceptible Mycobacterium […]; assay type: toxicity, cell-based; settings: read-out: Selectivity Index
Mycobacterium avium [15] = experiment: Antimycobacterial activity against drug resistant Mycobacterium avium 330/88 assessed as inhibition of mycobacterial growth at 500 uM incubated for 14 days; assay type: functional, organism-based; settings: time 14.0 day
Mycobacterium avium [16] = experiment: Antimycobacterial activity against drug resistant Mycobacterium avium 330/88 assessed as inhibition of mycobacterial growth at 500 uM incubated for 21 days; assay type: functional, organism-based; settings: time 21.0 day

Row | SMILES | MIC [1] | MIC [2] | MIC (Mycobacterium avium [3]) | MIC (Mycobacterium avium [4]) | MIC (Mycobacterium kansasii [5]) | MIC (Mycobacterium kansasii [6]) | MIC (Mycobacterium kansasii [7]) | MIC (Mycobacterium kansasii [8]) | MIC (Mycobacterium kansasii [9]) | MIC (Mycobacterium kansasii [10]) | IC50 (HepG2 [11]) | IC50 (HepG2 [12]) | selectivity ratio [13] | selectivity ratio [14] | Activity (Mycobacterium avium [15]) | Activity (Mycobacterium avium [16])
1 | C/C(=N\NC(=O)c1ccncc1)C(=O)Nc1ccc(F)cc1 | 0.25 µM (≈ 0.0751 µg/mL) | 0.25 µM (≈ 0.0751 µg/mL) | > 250 µM | > 250 µM | 2 µM (≈ 0.601 µg/mL) | 4 µM (≈ 1.2 µg/mL) | 8 µM (≈ 2.4 µg/mL) | 62.5 µM (≈ 18.8 µg/mL) | 125 µM (≈ 37.5 µg/mL) | 250 µM (≈ 75.1 µg/mL) | > 50 µM | > 50 µM | > 200 | > 625 |  | 
2 | C/C(=N\NC(=O)c1ccncc1)C(=O)Nc1cccc(F)c1 | 0.25 µM (≈ 0.0751 µg/mL) | 0.25 µM (≈ 0.0751 µg/mL) |  |  | 2 µM (≈ 0.601 µg/mL) | 4 µM (≈ 1.2 µg/mL) | 8 µM (≈ 2.4 µg/mL) |  |  |  |  |  |  |  | inactive | inactive
3 | C/C(=N\NC(=O)c1ccncc1)C(=O)Nc1cc(Cl)cc(Cl)c1 | ≤ 0.25 µM | 0.25 µM (≈ 0.0878 µg/mL) | > 250 µM | > 250 µM | 16 µM (≈ 5.62 µg/mL) | 16 µM (≈ 5.62 µg/mL) | 32 µM (≈ 11.2 µg/mL) | > 250 µM | > 250 µM | > 250 µM | > 50 µM | > 50 µM | > 200 | > 1.56 |  | 
4 | C/C(=N\NC(=O)c1ccncc1)C(=O)Nc1ccc(C(F)(F)C(F)(F)C(F)(F)C(F)(F)C(F)(F)C(F)(F)C(F)(F)C(F)(F)F)cc1 | 0.25 µM (≈ 0.175 µg/mL) | 0.5 µM (≈ 0.35 µg/mL) | > 1000 µM | > 1000 µM | > 1000 µM | > 1000 µM | > 1000 µM |  |  |  |  |  |  |  |  | 
5 | C/C(=N\NC(=O)c1ccncc1)C(=O)Nc1ccc(F)c(F)c1 | 0.25 µM (≈ 0.0796 µg/mL) | 0.5 µM (≈ 0.159 µg/mL) |  |  | 2 µM (≈ 0.637 µg/mL) | 4 µM (≈ 1.27 µg/mL) | 8 µM (≈ 2.55 µg/mL) |  |  |  |  |  |  |  | inactive | inactive
6 | C/C(=N\NC(=O)c1ccncc1)C(=O)Nc1ccc(OC(F)F)cc1 | 0.25 µM (≈ 0.0871 µg/mL) | 0.5 µM (≈ 0.174 µg/mL) | > 1000 µM | > 1000 µM | 2 µM (≈ 0.697 µg/mL) | 4 µM (≈ 1.39 µg/mL) | 8 µM (≈ 2.79 µg/mL) |  |  |  |  |  |  |  |  | 
7 | C/C(=N\NC(=O)c1ccncc1)C(=O)Nc1cccc(Br)c1 | 0.125 µM (≈ 0.0451 µg/mL) | 0.125 µM (≈ 0.0451 µg/mL) | > 1000 µM | > 1000 µM | 4 µM (≈ 1.44 µg/mL) | 8 µM (≈ 2.89 µg/mL) | 8 µM (≈ 2.89 µg/mL) |  |  |  |  |  |  |  |  | 
8 | C/C(=N\NC(=O)c1ccncc1)C(=O)Nc1cccc(C(F)(F)F)c1 | 0.125 µM (≈ 0.0438 µg/mL) | 0.25 µM (≈ 0.0876 µg/mL) | > 1000 µM | > 1000 µM | 2 µM (≈ 0.701 µg/mL) | 4 µM (≈ 1.4 µg/mL) | 8 µM (≈ 2.8 µg/mL) |  |  |  |  |  |  |  |  | 
9 | C/C(=N\NC(=O)c1ccncc1)C(=O)Nc1cc(Cl)c(Cl)c(Cl)c1 | 0.5 µM (≈ 0.193 µg/mL) | 1 µM (≈ 0.386 µg/mL) | > 250 µM | > 250 µM | 16 µM (≈ 6.17 µg/mL) | 16 µM (≈ 6.17 µg/mL) | 32 µM (≈ 12.3 µg/mL) | 62.5 µM (≈ 24.1 µg/mL) | 125 µM (≈ 48.2 µg/mL) | 250 µM (≈ 96.4 µg/mL) |  |  |  |  |  | 
10 | C/C(=N\NC(=O)c1ccncc1)C(=O)O [PYRUVIC ACID ISONIAZID] | 1 µM (≈ 0.207 µg/mL) | 1 µM (≈ 0.207 µg/mL) | 500 µM (≈ 104 µg/mL) | > 1000 µM | 8 µM (≈ 1.66 µg/mL) | 16 µM (≈ 3.32 µg/mL) | 16 µM (≈ 3.32 µg/mL) | 8 µM (≈ 1.66 µg/mL) | 16 µM (≈ 3.32 µg/mL) | 16 µM (≈ 3.32 µg/mL) | > 50 µM | > 50 µM | > 50 | > 3.12 |  | 
11 | C/C(=N\NC(=O)c1ccncc1)C(=O)Nc1cccc(I)c1 | 0.125 µM (≈ 0.051 µg/mL) | 0.5 µM (≈ 0.204 µg/mL) | > 1000 µM | > 1000 µM | 4 µM (≈ 1.63 µg/mL) | 8 µM (≈ 3.27 µg/mL) | 8 µM (≈ 3.27 µg/mL) |  |  |  |  |  |  |  |  | 
12 | C/C(=N\NC(=O)c1ccncc1)C(=O)Nc1ccc(Cl)c(Cl)c1 | 0.06 µM (≈ 0.0211 µg/mL) | 0.06 µM (≈ 0.0211 µg/mL) | > 250 µM | > 250 µM | 4 µM (≈ 1.4 µg/mL) | 8 µM (≈ 2.81 µg/mL) | 16 µM (≈ 5.62 µg/mL) | > 250 µM | > 250 µM | > 250 µM | > 50 µM | > 50 µM | > 833 | > 3.12 |  | 
13 | C/C(=N\NC(=O)c1ccncc1)C(=O)Nc1ccc(Cl)cc1 | 0.25 µM (≈ 0.0792 µg/mL) | 0.25 µM (≈ 0.0792 µg/mL) | 250 µM (≈ 79.2 µg/mL) | 250 µM (≈ 79.2 µg/mL) | 4 µM (≈ 1.27 µg/mL) | 8 µM (≈ 2.53 µg/mL) | 16 µM (≈ 5.07 µg/mL) | 16 µM (≈ 5.07 µg/mL) | 16 µM (≈ 5.07 µg/mL) | 16 µM (≈ 5.07 µg/mL) | > 50 µM | > 50 µM | > 200 | > 3.12 |  | 
14 | C/C(=N\NC(=O)c1ccncc1)C(=O)Nc1cc(C(F)(F)F)cc(C(F)(F)F)c1 | 1 µM (≈ 0.418 µg/mL) | 1 µM (≈ 0.418 µg/mL) | > 1000 µM | > 1000 µM | 32 µM (≈ 13.4 µg/mL) | 32 µM (≈ 13.4 µg/mL) | 32 µM (≈ 13.4 µg/mL) |  |  |  |  |  |  |  |  | 
15 | NNC(=O)c1ccncc1 [ISONIAZID] | 0.5 µM (≈ 0.0686 µg/mL) | 1 µM (≈ 0.137 µg/mL) | > 250 µM | > 250 µM | 4 µM (≈ 0.549 µg/mL) | 8 µM (≈ 1.1 µg/mL) | 8 µM (≈ 1.1 µg/mL) | > 250 µM | > 250 µM | > 250 µM |  |  |  |  |  | 
16 | C/C(=N\NC(=O)c1ccncc1)C(=O)Nc1ccc(Br)cc1 | 0.06 µM (≈ 0.0217 µg/mL) | 0.125 µM (≈ 0.0451 µg/mL) | 250 µM (≈ 90.3 µg/mL) | 250 µM (≈ 90.3 µg/mL) | 4 µM (≈ 1.44 µg/mL) | 8 µM (≈ 2.89 µg/mL) | 16 µM (≈ 5.78 µg/mL) | 16 µM (≈ 5.78 µg/mL) | 16 µM (≈ 5.78 µg/mL) | 16 µM (≈ 5.78 µg/mL) | > 50 µM | > 50 µM | > 400 | > 3.12 |  | 
